According to patent US20250344698A1, “A METHOD OF CONTROLLING WEEDS” (SYNGENTA CROP PROTECTION AG, priority 2022, published 2025):

Test system: PPO inhibitor herbicide resistant Amaranthus tuberculatus homozygous for deletion of glycine at codon 210 in PPX2L
Test: Postemergence glasshouse test, dead or alive assessment, codon 210 deletion population
Assay type: in vivo
Details: 14 days after application; for use rate at or beyond which no plants survived application: postemergence

| Compound | Average % Survival of 16 repetitions (2 g ai/ha^−1 postemergence) | Average % Survival of 16 repetitions (4 g ai/ha^−1 postemergence) | Average % Survival of 16 repetitions (8 g ai/ha^−1 postemergence) | Average % Survival of 16 repetitions (16 g ai/ha^−1 postemergence) | Average % Survival of 16 repetitions (32 g ai/ha^−1 postemergence) | Average % Survival of 16 repetitions (64 g ai/ha^−1 postemergence) | Average % Survival of 16 repetitions (128 g ai/ha^−1 postemergence) | Average % Survival of 16 repetitions (256 g ai/ha^−1 postemergence) | use rate at or beyond which no plants survived application | Average % Survival of 16 repetitions (0.82 g ai/ha^−1 postemergence) | Average % Survival of 16 repetitions (1.64 g ai/ha^−1 postemergence) | Average % Survival of 16 repetitions (3.28 g ai/ha^−1 postemergence) | Average % Survival of 16 repetitions (6.56 g ai/ha^−1 postemergence) | Average % Survival of 16 repetitions (13.13 g ai/ha^−1 postemergence) | Average % Survival of 16 repetitions (26.25 g ai/ha^−1 postemergence) | Average % Survival of 16 repetitions (52.5 g ai/ha^−1 postemergence) | Average % Survival of 16 repetitions (105 g ai/ha^−1 postemergence) | Average % Survival of 16 repetitions (210 g ai/ha^−1 postemergence) | Average % Survival of 16 repetitions (420 g ai/ha^−1 postemergence) | Average % Survival of 16 repetitions (840 g ai/ha^−1 postemergence) |
| --- | --- | --- | --- | --- | --- | --- | --- | --- | --- | --- | --- | --- | --- | --- | --- | --- | --- | --- | --- | --- |
| CCOC(=O)C1(C)CC(c2cc(-n3c(=O)cc(C(F)(F)F)n(C)c3=O)c(F)cc2Cl)=NO1 (stereo not drawn) [Compound 8, 3-(2-chloro-4-fluoro-5-(3-methyl-2,6-dioxo-4-trifluoromethyl-3,6-dihydropyrimidin-1(2H)-yl)phenyl)-5-methyl-4,5-dihydroisoxazole-5-carboxylic acid ethyl ester] | 100% | 100% | 75% | 12.5% | 12.5% | 0% | 0% | 0% | ≥ 64 g ai/ha^−1 |  |  |  |  |  |  |  |  |  |  |  |
| CS(=O)(=O)NC(=O)c1cc(Oc2ccc(C(F)(F)F)cc2Cl)ccc1[N+](=O)[O-] [Fomesafen] |  |  |  |  |  |  |  |  | ≥ 210 g ai/ha^−1 | 100% | 100% | 100% | 100% | 100% | 100% | 81.3% | 62.5% | 0% | 0% | 0% |
